Assay results taken from patent publication US20110262508A1, “ANTIMICROBIAL COMPOSITIONS, FORMULATIONS AND USES THEREOF” (priority 2007, published 2011).
Like-named read-outs stand apart in the source and are kept apart here. Peptide text beside a SMILES is read from it. * marks the point of attachment. Biotin = O=C1N[C@H]2[C@H](CS[C@H]2CCCCC(=O)*)N1

Experiments:
[1] = system: A. baumannii ATCC Accession No. 19606; type: cell-based; details: A. baumannii ATCC 19606
Protocol: (§1) Synthetic peptides were tested for their ability to inhibit bacterial growth in liquid culture. […] 19606, Acinetobacter spp. ATCC 17903, Acinetobacter spp. ATCC 19004, Escherichia coli strain BL21, S. aureus, S. typhimurium strain AroA, P. aeruginosa or P. pneumotropica. After 5-6 hours of shaking at 37° C., growth was measured as absorbance at 595 nm. As a control, cultures were grown in the presence of 0.1% acetonitrile (i.e., the concentration present in 10 μM peptide).

[2] = system: Acinetobacter spp. ATCC 17903; type: cell-based
Protocol: as §1

[3] = system: Acinetobacter spp. ATCC 19004; type: cell-based
Protocol: as §1

[4] = system: Escherichia coli strain BL21; type: cell-based; details: E. coli BL21
Protocol: as §1

P. aeruginosa = type: cell-based
Protocol: as §1

S. aureus = type: cell-based
Protocol: as §1

[5] = system: S. typhimurium strain AroA; type: cell-based
Protocol: as §1

[6] = system: A. baumannii ATCC 19606, Acinetobacter spp. ATCC 17903, Acinetobacter spp. ATCC 19004, E. coli BL21, S. aureus, S. typhimurium AroA, P. aeruginosa, P. …; experiment: Antibacterial spectrum over the serial dilution panel (Table 6); type: cell-based; details: summary of Table 6
Method in brief: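 Peptides at about 5–10 μM were added to liquid media freshly inoculated with each bacterial strain and shaken 5-6 h at 37° C. Growth read as absorbance at 595 nm; control cultures contained 0.1% acetonitrile.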

A. baumannii = type: cell-based
Method in brief: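 Laboratory strains and 50 clinical isolates of A. baumannii were tested by CLSI broth microdilution, with serially diluted peptide (0.1-64 μg) and about 1×10^5 C.F.U. per well, incubated aerobically overnight at 35±2° C. MIC was read visually. MBC came from subculturing clear wells, as ≥99.9% inoculum reduction.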

A. baumannii cultures = experiment: Time taken to exert cytotoxic effect (killing time); type: cell-based
Protocol: To determine the time killing times for bactericidal peptides, A. baumannii cultures were exposed to different concentrations of peptides for predetermined time periods, and the numbers of bacteria surviving at the end of each time period were determined. Peptides were classified as “Fast”, “Intermediate” or “Slow” according to whether they exerted their cytotoxic effect in less than 30 mins, or between 30-60 mins, or between […] and 240 mins.

human RBC = experiment: Hemolysis of RBC; type: cell-based
Protocol: Varying amounts of peptide were incubated with the washed RBC for one hour at room temperature. Intact cells were pelleted by gentle centrifugation, and hemolysis of each sample was determined by absorption measurement at 450 nm. A positive control sample consisted of RBC lysed by the addition of 0.1% Triton, for which hemolysis was also determined by absorption measurement at 450 nm. Percentages of lysed RBC incubated with peptide were then calculated by the ratio of absorbances at 450 nm for the sample relative to the absorbance at 450 nm of the positive control sample. The MHC10 value was calculated as the minimum peptide concentration to induce 10% cell lysis.

[7] = Cytotoxicity against Jurkat cells (CellTiter Blue); type: cell-based, human; details: human
Protocol: The cytotoxicities of selected peptides against human T-lymphocytes, in particular Jurkat cells, was determined by growing 100 uL Jurkat cells in RPMI (approx. 5×10^5 cells/ml density) overnight at 37° C. under 5% CO2 atmosphere, in microtiter plate wells, in the presence and absence of peptides. Control reactions either lacked peptide (negative cytotoxicity control), or contained a buffer to completely lyse Jurkat cells (positive cytotoxicity control). The viabilities of cells were then determined by addition of 20 uL CellTiter Blue dye (Promega) to each well, and incubation of cells for a further 3 hrs at 37° C. Fluorescence values were measured for 1 sec at 540 nm/615 nm, and expressed relative to fluorescence values for negative and positive cytotoxicity control samples. Comparison with a fully lysed control allowed the calculation of a percentage killing for each peptide concentration. The MCC10 value was calculated as the minimum peptide concentration required to induce 10% cytotoxicity.

CC(C)C[C@H](NC(=O)CNC(=O)[C@@H]1CCCN1C(=O)[C@H](Cc1c[nH]c2ccccc12)NC(=O)[C@H](CCCCN)NC(=O)[C@H](CCCCN)NC(=O)[C@H](CCCNC(=N)N)NC(=O)[C@H](C)NC(=O)[C@H](CCC(N)=O)NC(=O)[C@@H]1CCCN1C(=O)[C@H](CO)NC(=O)[C@@H](NC(=O)[C@H](CCCCN)NC(=O)[C@H](CC(C)C)NC(=O)[C@H](CCCCN)NC(=O)[C@@H](NC(=O)[C@H](CC(C)C)NC(=O)[C@H](Cc1c[nH]cn1)NC(=O)[C@H](CC(=O)O)NC(=O)CN)C(C)C)[C@@H](C)O)C(=O)NCC(=O)N[C@@H](CC(N)=O)C(=O)N[C@@H](CCC(=O)O)C(=O)O [Ac99] (H-GDHLVKLKTSPQARKKWPGLGNE-OH; N-terminus and C-terminus assumed)
% inhibition of bacterial growth by peptide ([1]; 12.5 μM peptide): 9% | % inhibition of bacterial growth by peptide ([1]; 15 μM peptide): 20% | % inhibition of bacterial growth by peptide ([1]; 17.5 μM peptide): 14% | % inhibition of bacterial growth by peptide ([1]; 20 μM peptide): 27% | % inhibition of bacterial growth by peptide ([2]; 12.5 μM peptide): 0% | % inhibition of bacterial growth by peptide ([2]; 15 μM peptide): 1% | % inhibition of bacterial growth by peptide ([2]; 17.5 μM peptide): 1% | % inhibition of bacterial growth by peptide ([2]; 20 μM peptide): 32% | % inhibition of bacterial growth by peptide ([3]; 12.5 μM peptide): 0% | % inhibition of bacterial growth by peptide ([3]; 15 μM peptide): 1% | % inhibition of bacterial growth by peptide ([3]; 17.5 μM peptide): 7% | % inhibition of bacterial growth by peptide ([3]; 20 μM peptide): 92% | % inhibition of bacterial growth by peptide ([4]; 12.5 μM peptide): 16% | % inhibition of bacterial growth by peptide ([4]; 15 μM peptide): 23% | % inhibition of bacterial growth by peptide ([4]; 17.5 μM peptide): 17% | % inhibition of bacterial growth by peptide ([4]; 20 μM peptide): 27% | % inhibition of bacterial growth by peptide (P. aeruginosa; 12.5 μM peptide): 8% | % inhibition of bacterial growth by peptide (P. aeruginosa; 15 μM peptide): 21% | % inhibition of bacterial growth by peptide (P. aeruginosa; 17.5 μM peptide): 0% | % inhibition of bacterial growth by peptide (P. aeruginosa; 20 μM peptide): 0% | % inhibition of bacterial growth by peptide (S. aureus; 12.5 μM peptide): 60% | % inhibition of bacterial growth by peptide (S. aureus; 15 μM peptide): 80% | % inhibition of bacterial growth by peptide (S. aureus; 17.5 μM peptide): 99% | % inhibition of bacterial growth by peptide (S. aureus; 20 μM peptide): 100% | % inhibition of bacterial growth by peptide ([5]; 12.5 μM peptide): 0% | % inhibition of bacterial growth by peptide ([5]; 15 μM peptide): 5% | % inhibition of bacterial growth by peptide ([5]; 17.5 μM peptide): 0% | % inhibition of bacterial growth by peptide ([5]; 20 μM peptide): 4% | selectively inhibited growth of Acinetobacter spp. ATCC 19004, and S. aureus [6]: selectively inhibited growth

CC[C@H](C)[C@H](NC(=O)[C@H](Cc1c[nH]c2ccccc12)NC(=O)[C@H](CC(=O)O)NC(=O)[C@H](CO)NC(=O)[C@H](CS)NC(=O)[C@H](CC(C)C)NC(=O)[C@H](CC(C)C)NC(=O)[C@H](C)NC(=O)[C@H](CS)NC(=O)[C@H](CCCNC(=N)N)NC(=O)[C@H](CC(C)C)NC(=O)[C@H](CCCNC(=N)N)NC(=O)[C@H](C)NC(=O)CNC(=O)[C@H](CCCNC(=N)N)NC(=O)[C@@H](NC(=O)CCCC[C@@H]1SC[C@@H]2NC(=O)N[C@@H]21)C(C)C)C(=O)N[C@H](C(=O)N[C@@H](CO)C(=O)N[C@@H](CS)C(=O)N[C@@H](CCCNC(=N)N)C(=O)N[C@@H](CC(C)C)C(=O)N[C@@H](CC(C)C)C(=O)NCC(=O)O)C(C)C [Ac38] (Biotin-VRGARLRCALLCSDWIVSCRLLG-OH; N-terminus and C-terminus assumed)
selectively inhibited growth of A. baumannii ATCC Accession No. 19606, Acinetobacter spp. ATCC 17903, Acinetobacter spp. ATCC 19004, and S. aureus [6]: selectively inhibited growth | MIC (μM) for amidated peptide (A. baumannii): 15 to 20 µM | MIC (μM) for non-amidated Peptide (A. baumannii): 40 µM | bactericidal or bacteriostatic against A. baumannii (A. baumannii): bactericidal | killing time classification (A. baumannii cultures): RAPID | MHC10 (human RBC): >100 µM | Percent hemolysis at 5 μM peptide (human RBC; red cells of human, 5): 0.8% | Percent hemolysis at 10 μM peptide (human RBC; red cells of human, 10): 3.8% | Percent hemolysis at 20 μM peptide (human RBC; red cells of human, 20): 4.8% | Percent hemolysis at 40 μM peptide (human RBC; red cells of human, 40): 11.9% | Percent hemolysis at 60 μM peptide (human RBC; red cells of human, 60): 19.5% | Percent hemolysis at 80 μM peptide (human RBC; red cells of human, 80): 26.9% | Percent hemolysis at 100 μM peptide (human RBC; red cells of human, 1 h, 100): 27.9% | cytotoxicity at 12.5 μM [7]: 0% | cytotoxicity at 25 μM [7]: 0% | cytotoxicity at 50 μM [7]: 0%
